Our source for the TGI and GI50 values is PubChem BioAssay (NCI).

Holding throughout (test): NCI-60 cell line screen, 48 h
Experiment [1] deals with DU-145 prostate.
In experiment [2] the test system is EKVX NSCLC.
The test system of experiment [3] is NCI-H23 lung.
The test system of experiment [4] is MALME-3M melanoma.
Experiment [5] concerns RPMI-8226 leukemia.
In experiment [6] the test system is SK-MEL-2 melanoma.
The subject of experiment [7] is M14 melanoma.
Experiment [8] has as its system UO-31 renal.
Experiment [9] concerns MDA-N.

Each structure is given as a SMILES string.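 Assay format: 96-well plates, 48-hour exposure. The concentration for 50% growth inhibition is given as GI50. TGI marks complete inhibition of growth.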 Where a SMILES comes first, the peptide text is derived from it. Side-chain parts run from the residue outwards. The star is where a group is joined. Cbz = O=C(OCc1ccccc1)*; Boc = CC(C)(C)OC(=O)* Bounds are passed on as bounds.

Regarding `CC(C(O)c1ccccc1)[N+](=O)[O-]` (stereo not drawn), the TGI in experiment [1] is 35.5 µM; in [2], more than 100 µM; in experiment [3], more than 100 µM; in experiment [4], 48.4 µM; in experiment [5], 47.5 µM; in experiment [6] it was 39 µM. Also, the values for the TGI in experiment [7] and in [8] were 72 µM and 20.6 µM, respectively.

Turning to `CCN(CC)CCNC(=O)c1cc2cc(NC(=O)c3cc4cc(NC(=O)c5cc6cc([N+](=O)[O-])ccc6[nH]5)ccc4[nH]3)ccc2[nH]1`, the TGI in [1], in experiment [2], in experiment [3], in experiment [4], in experiment [5] and in experiment [6] was more than 100 µM in each case. For the same compound, the TGI in [7] and in experiment [8] was more than 100 µM throughout.

`CC(C)(CO)NC(=O)c1cccc(C(=O)NC(C)(C)CO)c1Br`: the TGI in experiment [1], in experiment [2], in experiment [3], in experiment [4], in experiment [5] and in [6] was more than 100 µM throughout. In addition, the TGI in [7] and in experiment [8] was more than 100 µM in each case.

As to `CN1CCN(c2ccc3nc(-c4ccc5nc(-c6ccc(N(C)CCCl)cc6)[nH]c5c4)[nH]c3c2)CC1`, the TGI in [1] is 11.4 µM; in experiment [9], 0.511 µM; in experiment [3], 7.4 µM; in experiment [4], 0.41 µM; in [5], 16.5 µM; in experiment [6] it was 0.465 µM. Further, the TGI in [7] is 3.42 µM; in [8] it was 33.8 µM.

Take `CC(=O)O[C@H]1CC[C@H]2[C@@H]3CC[C@H]4Nc5c(cnn5S(C)(=O)=O)C[C@]4(C)[C@H]3CC[C@]12C`: the TGI in [1], in experiment [9], in [3], in experiment [4], in [5] and in [6] was more than 100 µM in each case. The TGI in experiment [7] and in [8] was more than 100 µM in each case.

As for `CCCCCCCCC[C@@H]1C[C@@H]2CCC3C(C(=O)OCCCCNC(=O)OCc4ccccc4)=C(C)NC(=N1)N32` (stereo partly drawn), the TGI in [1] came out at 21 µM; in [2], 7.76 µM; in experiment [3], 6.78 µM; in [5] it was 4.44 µM; in [6] it was 4.84 µM; in experiment [7] it was 6.97 µM. In [8], this compound showed a TGI of 13.7 µM.

Take `Cc1cc(O)c(/C=N/C(=O)NN)c(=O)o1`: the TGI in [1], in experiment [2], in experiment [9], in [3], in experiment [6] and in experiment [7] was more than 100 µM in each case. This compound also came in with a TGI in experiment [8] of more than 100 µM.

In the case of `CC1(C)C(C(=O)OC(C#N)c2cccc(OCC(=O)OCc3ccccc3)c2)C1(C)C` (stereo not drawn), the TGI in experiment [1], in [2], in experiment [9], in experiment [3], in experiment [4] and in experiment [6] was more than 100 µM each time. The TGI in experiment [7] and in [8] was more than 100 µM each time.

For `C[n+]1c(-c2ccc(/C=N/Nc3n[nH]c(=S)n3N/N=C/c3ccc(-c4cn5ccccc5[n+]4C)cc3)cc2)cn2ccccc21`, the TGI in [2], in [9], in experiment [5], in [7] and in experiment [8] was more than 100 µM throughout.

`CC(C)CC(NC(=O)OCc1ccccc1)C(=O)NCCCCC(NC(=O)C(CCCCNC(=O)C(CC(C)C)NC(=O)OCc1ccccc1)NC(=O)C(CCCCNC(=O)C(CC(C)C)NC(=O)OCc1ccccc1)NC(=O)C(CCCCNC(=O)C(CC(C)C)NC(=O)OCc1ccccc1)NC(=O)OC(C)(C)C)C(=O)O` (stereo not drawn) (Boc-K([Leu-Cbz])K([Leu-Cbz])K([Leu-Cbz])K([Leu-Cbz])-OH; configuration not given here): the TGI in [1], in experiment [9], in [3], in [4], in experiment [5] and in experiment [6] was more than 25 µM in each case. The TGI in experiment [7] and in experiment [8] was more than 25 µM each time.

Regarding `CCOc1ccc(-n2c(=O)n3c(Nc4ccc(Cl)cc4)nc4c(c(=O)n(C)c(=O)n4C)n3c2=O)cc1`, the TGI in experiment [1] is more than 100 µM; in experiment [2], 89.6 µM; in [9], more than 100 µM; in experiment [3], 64.2 µM; in [5], 61.4 µM; in experiment [6] it was more than 100 µM. Besides, the TGI in [8] was more than 100 µM.

With `CCNC(=O)CCCCC(=O)c1c(C)[nH]c(/C=C2\N=C(c3ccc[nH]3)C=C2OC)c1C`, the GI50 was 3.01 µM in [1]; 11.2 µM in experiment [2]; 4.5 µM in [3]; 2.32 µM in experiment [4]; 2.79 µM in experiment [5]; 3.14 µM in [6]. In addition, the GI50 is 2.68 µM in experiment [7] and 2.03 µM in [8]. In addition, the TGI is 11 µM in experiment [1]; 31.7 µM in experiment [2]; 24.5 µM in experiment [3]; 5.74 µM in experiment [4]; more than 100 µM in [5]; 7.44 µM in experiment [6]. In addition, the TGI in [7] worked out at 7.13 µM; in [8], 4.51 µM.

On to `COc1ccc(-c2cc(-c3ccc(Nc4ccnc5cc(C(F)(F)F)ccc45)cc3)[nH]c(=O)c2C#N)cc1`, for which the TGI in experiment [1] was more than 100 µM; in experiment [2], more than 100 µM; in [9], 98.5 µM; in [3], more than 60.8 µM; in [4], more than 100 µM; in experiment [5], more than 100 µM. The TGI in experiment [6] and in experiment [7] was more than 100 µM in each case.

`FC(F)(F)c1nc2cc(SSc3cc4nc(C(F)(F)F)[nH]c4cc3Cl)c(Cl)cc2[nH]1`: the TGI in experiment [1], in [2], in experiment [3], in experiment [4], in experiment [5] and in [6] was more than 100 µM in each case. Further, the TGI in experiment [7] was more than 100 µM.
